From publication PMC9442787, “A Modified Yeast Two-Hybrid Platform Enables Dynamic Control of Expression Intensities to Unmask Properties of Protein–Protein Interactions” (ACS Synthetic Biology, 2022)

Key:
PYL7 = PYL7 (Arabidopsis thaliana, UniProt Q1ECF1); conditions: interaction with PP2C (HAB1 or ABI1 not told); low inducer concentrations; 30 °C
SiGID1b1 = biological target: T1, SiGID1b1 (Solanum lycopersicum, UniProt A0A3Q7J108); test: adjustable yeast two-hybrid, mScarlet-I fluorescence; type: cell-based; conditions: interaction with PROCERA; estradiol/progesterone-titrated expression; 30 °C
T1 construct: gene GID1b-1; receptor fused to GAL4 BD (pBD-pZ-FLAG), PROCERA fused to GAL4 AD (pACT-Lex), in yeast Y190; with DELLA protein GAI (PROCERA)
T1 sequence (A0A3Q7J108 1-345): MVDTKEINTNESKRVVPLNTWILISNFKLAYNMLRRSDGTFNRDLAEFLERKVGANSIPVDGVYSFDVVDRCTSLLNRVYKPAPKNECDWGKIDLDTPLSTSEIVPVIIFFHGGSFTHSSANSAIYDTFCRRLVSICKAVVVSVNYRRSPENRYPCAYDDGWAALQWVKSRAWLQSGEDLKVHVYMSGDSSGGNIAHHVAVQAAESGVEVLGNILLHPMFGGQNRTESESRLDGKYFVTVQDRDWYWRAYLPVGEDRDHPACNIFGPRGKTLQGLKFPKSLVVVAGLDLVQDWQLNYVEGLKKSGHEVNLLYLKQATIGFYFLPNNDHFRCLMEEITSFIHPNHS
T1 sequence (Q7Y1B6 1-588 partner): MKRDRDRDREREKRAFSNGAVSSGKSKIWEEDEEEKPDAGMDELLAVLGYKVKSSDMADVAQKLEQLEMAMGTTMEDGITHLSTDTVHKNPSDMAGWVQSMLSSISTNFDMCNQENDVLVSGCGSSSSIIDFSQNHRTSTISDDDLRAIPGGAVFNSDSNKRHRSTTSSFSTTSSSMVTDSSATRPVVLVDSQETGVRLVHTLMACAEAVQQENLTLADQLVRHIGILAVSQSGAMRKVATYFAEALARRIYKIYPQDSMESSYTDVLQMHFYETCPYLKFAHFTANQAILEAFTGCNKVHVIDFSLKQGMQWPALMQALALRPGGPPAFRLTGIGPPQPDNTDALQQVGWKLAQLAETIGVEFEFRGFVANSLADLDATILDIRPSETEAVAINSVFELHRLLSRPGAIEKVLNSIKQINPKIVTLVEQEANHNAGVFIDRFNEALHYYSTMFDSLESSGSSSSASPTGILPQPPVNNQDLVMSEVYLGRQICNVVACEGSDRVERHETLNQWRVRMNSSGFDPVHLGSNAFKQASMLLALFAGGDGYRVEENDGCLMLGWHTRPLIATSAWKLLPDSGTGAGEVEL

Sequence of PYL7 (Q1ECF1 whole entry): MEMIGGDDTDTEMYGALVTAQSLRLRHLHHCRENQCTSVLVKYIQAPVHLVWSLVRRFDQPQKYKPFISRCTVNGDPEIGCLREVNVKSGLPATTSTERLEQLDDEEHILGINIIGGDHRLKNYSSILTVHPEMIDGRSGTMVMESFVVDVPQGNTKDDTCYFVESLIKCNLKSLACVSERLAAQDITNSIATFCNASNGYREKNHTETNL
Sequence of PYL7 (Q9CAJ0 whole entry partner): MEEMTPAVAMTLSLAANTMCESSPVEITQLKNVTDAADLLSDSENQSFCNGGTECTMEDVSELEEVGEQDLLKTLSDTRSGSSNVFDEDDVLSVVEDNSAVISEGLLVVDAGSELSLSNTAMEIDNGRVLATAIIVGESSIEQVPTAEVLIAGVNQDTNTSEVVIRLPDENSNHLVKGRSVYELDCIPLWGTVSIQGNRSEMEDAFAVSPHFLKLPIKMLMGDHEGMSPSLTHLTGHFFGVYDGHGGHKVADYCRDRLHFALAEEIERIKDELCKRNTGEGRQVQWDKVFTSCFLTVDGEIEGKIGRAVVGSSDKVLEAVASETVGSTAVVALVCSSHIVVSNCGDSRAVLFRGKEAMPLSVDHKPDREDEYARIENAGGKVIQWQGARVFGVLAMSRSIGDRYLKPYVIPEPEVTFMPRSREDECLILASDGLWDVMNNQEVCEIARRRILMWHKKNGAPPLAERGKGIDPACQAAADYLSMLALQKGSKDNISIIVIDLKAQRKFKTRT

Compound	maximal ratio of signal with ABA to mock (PYL7)	adjustable yeast two-hybrid, mScarlet-I fluorescence (SiGID1b1)
CC1=CC(=O)CC(C)(C)[C@@]1(O)/C=C/C(C)=C\C(=O)O [abscisic acid]	4.9	–
C=C1C[C@]23C[C@@]1(O)CC[C@H]2[C@@]12C=C[C@H](O)[C@@](C)(C(=O)O1)[C@H]2[C@@H]3C(=O)O [GA3]	–	SiGID1b1 displayed full dependency on GA presence for interaction with SiPROCERA
